Experimental data taken from US10047386B2, “Biomarker for abdominal aortic aneurysm” (THE REGENTS OF THE UNIVERSITY OF CALIFORNIA, priority 2011, dated 2018).
“And” between values parts separate entries of the source, which are not always exact repeats. Identical values can stand only once. “Also recorded” adds a separate entry of the source.

Columns and labels:
Format in all cases: in vivo
aortic H4B [1] = experiment: HPLC determination of aortic H4B content, WT mice; conditions: Ang II-infused WT mice, FA 15 mg/kg per day
Protocol: (§1) Animals were given 1 week to recover from the surgery. After this period, blood pressure was measured for 3 days to obtain a baseline. The osmotic pumps were then implanted on day 10 after surgery. Measurements were made daily from 9:00 AM to 4:00 PM at a 250-Hz sampling rate. Average blood pressure was calculated daily as the average of the entire recording period. The use of animals and experimental procedures were approved by the institutional animal care and usage committee at the University of California Los Angeles. Electron spin resonance determination of aortic NO and superoxide production, high-performance liquid chromatography determination of aortic H4B content, and Western blot determination of endothelial DHFR expression were performed as published previously.^1,2,5
(§2) H4B levels are measured using a HPLC system as previously described. Briefly, aorta samples are lysed with trichloroacetic acid and DTT, subjected to acidic or alkalytic oxidation, and H4B and its oxidized species are detected with a fluorescent detector after separation in the HPLC system (Shimadzu).

aortic H4B [2] = experiment: HPLC determination of aortic H4B content, hph-1 mice; conditions: for aortic levels of H4B: hph-1 mice, Example 3, n=3 each (vehicle 1.87±0.25)
Protocol: as §1, §2

plasma H4B [3] = experiment: HPLC determination of plasma H4B, hph-1 mice; conditions: n=3 each (vehicle 1.37±0.05)
Protocol: as §2
(§3) Blood samples are collected from Ang II-infused apoE null and hph-1 animals. Approximately 0.1 mL of blood is collected from each animal from the tail vein on a weekly basis. HPLC is used to determine the concentration of H4B in the blood samples as outlined above.
(§4) Also investigated was whether FA supplementation as used above leads to improved H4B availability both in the circulation and in the vascular tissues. Ang II-infused apoE null or hph-1 mice are treated with diets supplemented with FA, and circulating and aortic H4B contents are determined using HPLC at different time points of 1, 2, 3 and 4 wks. […] It is established that it takes 3-4 weeks for AAA to develop in Ang II-infused apoE null mice, and at these time points, circulating and tissues H4B levels were indeed decreased, but restored by FA treatment (FIGS. 9-10).

aortic H4B [4] = experiment: HPLC determination of aortic H4B, apoE null mice; conditions: n=6 (vehicle 4.86±0.32)
Protocol: as §2, §4

hph-1 mice [5] = experiment: Ultrasound detection of abdominal aorta size, hph-1 mice; conditions: Ang II infusion, day 0 values 0.37 (Ang II) and 0.39 (FA)
Excerpt: (§5) Animals were anesthetized with isoflurane and placed on a temperature-controlled table, which also measures ECG for heart rate. Isoflurane levels were adjusted throughout the experiment to maintain heart rate between 400 and 500 bpm while keeping the animal sufficiently anesthetized. Hair was removed from the abdomen using a hair removal cream, and preheated ultrasound transmission gel was applied onto the abdomen area. An ultrasound probe (Velvo 770, Visualsonics) was placed on the gel to visualize aorta transversely. The aorta was identified using Doppler measurement for the presence of pulsatile flow. […] Images were recorded and saved onto a PC computer for offline area analysis. Hematoxylin-eosin and Verhoeff-Van Gieson stainings were conducted following standard histological protocols.

hph-1 mice [6] = experiment: AAA formation in Ang II-infused hph-1 mice; conditions: for AAA total morbidity / incidence rate: Ang II 0.7 mg/kg per day for 14 days, FA 15 mg/kg per day oral where given
Protocol: (§6) The hph-1 mice (originally in CBA background)^19 were backcrossed with C57BL6 mice for >10 generations and genotyped based on a protocol by Khoo et al.^21 Only homozygote hph-1 mice in C57BL6 background were used for experiments. WT and hph-1 male mice at 24 weeks of age were infused with Ang II (0.7 mg/kg per day) using subcutaneously implanted osmotic pumps (Durect Corp). During the 14-day infusion, blood pressure was monitored by telemetry method. Wireless blood pressure probes were implanted into the animals 10 days before the implantation of the osmotic pumps. The catheter of the blood pressure probe was inserted into the left carotid artery, whereas the body of the probe was inserted into the right flank.
(§7) WT and hph-1 mice were started on continuous oral administration of FA (15 mg/kg per day) or tail vein transfection of DHFR expression vector (pcDNA3.1-DHFR)5 in lipid-based reagent from Altogen Biosystems every other day for 14 days, starting 2 days before Ang II infusion. The mice were monitored twice per day during the infusion period of 2 weeks, and aortas were harvested for assessment of AAA formation, endothelial DHFR expression, and eNOS uncoupling activity by day 14. Animals that died suddenly during the infusion period of 14 days were inspected for aneurysm immediately and aortas were freshly harvested for experiments.

hph-1 mice [7] = experiment: Aortic histology (H&E, VVG, macrophage staining), hph-1 mice; conditions: for infiltrating macrophages: Ang II-infused mice
Excerpt: as §5
(§8) Formalin-fixed and paraffin-embedded tissue were sectioned at 5 μm. Paraffin was removed by washing with xylene and then rehydrated with descending concentrations of ethanol. Antigen retrieval was performed by immersing the sections in an antigen retrieval buffer ([…] of citric acid, 0.01% Tween 20) at 98.5° C. for 20 minutes. Sections were washed in PBS plus 0.1% triton (PBS-T) and then blocked with 2% normal goat serum in PBS-T at room temperature for 3 hours. Sections were then incubated with primary antibody (Mac-3, BD Pharmingen, 2%, in PBS-T) overnight at 4° C. After washing with PBS-T for 1 hour, sections were incubated with secondary antibody (Alexa fluor 488, 2% in PBS-T) for 2 hours at room temperature in the dark. After washing with PBS-T for 1 hour, sections were dehydrated with ascending grades of ethanol and then xylene. Sections were mounted with Permount medium and pictures taken with a confocal microscope (Leica, SP1 inverted). MMP activity assays were performed as published previously.^22

apoE null mice = experiment: AAA formation in Ang II-infused apoE null mice; conditions: for number of mice with AAA / number of mice with No AAA: Ang II 4 weeks, FA 15 mg/kg/day where given
Protocol: Animals were fed normal chow or customized FA chew (15 mg/kg/day) two days prior to Ang II infusion and throughout the study period of 4 weeks. Of note, 24 out of 26 Ang II infused apoE null mice (92.3%) on normal chow developed AAA (FIG. 11). […] L-NAME sensitive superoxide production, which reflects eNOS uncoupling activity, was also measured.
For this study, apoE null male animals were infused with Ang II for 4 weeks, which has been shown in literature to reliably produce AAA in 90-100% of the animals. One group of animals is fed food mixed with FA. AAA development is monitored using a noninvasive ultrasound technique during the infusion period. At the end of the four weeks, aortas from the animals were harvested and histology or biochemical assays were performed to assess for various markers of AAA and eNOS functional state.
Animals were either given regular chow, or food pellets made in house mixed with FA (15 mg/kg/day). Aorta are carefully dissected and cleaned of connective tissue from the animals after euthanasia. Blood samples (˜0.1 mL) are collected from each animal on a weekly basis and after euthanasia.
The development of AAA is monitored noninvasively via an ultrasound imaging system (Vevo 770, Visualsonics) during the Ang II-infusion period. The abdominal aortas were imaged transversely and identified via Doppler measurements for the presence of a major pulsatile flow. […] Aorta size is later measured offline from images captured. Two measurements per week after Ang II infusion, as well as two measurements before the Ang II infusion (for control) are made. AAA is defined as an enlargement of the abdominal aorta by at least 50%, and later confirmed at the experimental end point. The AAA incidence for this model was also assessed by direct inspection of abdominal aorta at time of harvest, or post-mortem in those died of sudden rupture.

hph-1 mice [8] = experiment: Mean blood pressure by intracarotid telemetry, hph-1 mice
Protocol: as §6
as §1, with “Electron spin resonance determination of aortic NO and superoxide production, high-performance liquid chromatography determination of aortic H4B content, and Western blot determination of endothelial DHFR expression were performed as published previously.^1,2,5” left out

plasma H4B [9] = experiment: HPLC determination of plasma H4B, apoE null mice; conditions: n=6 each (vehicle 3.31±0.13)
Protocol: as §2, §3, §4

MMP9 = experiment: MMP activity zymography of aortas, MMP9, hph-1 mice
Protocol: as §8
(§9) An increase in MMP activity is one of the hallmarks of AAA development. Therefore, MMP activity can be measured using a zymography technique described in detail in other studies. Briefly, aortic lysates are loaded to gelatin infused SDS-PAGE gels. After electrophoresis, gelatin in the gel is digested by MMP in the loaded samples by incubating the gel in 37° C. overnight. […]

WT mice [10] = experiment: Mean blood pressure by intracarotid telemetry, WT mice
Protocol: as §6
as §1, with “Electron spin resonance determination of aortic NO and superoxide production, high-performance liquid chromatography determination of aortic H4B content, and Western blot determination of endothelial DHFR expression were performed as published previously.^1,2,5” left out

MMP2 [11] = experiment: MMP activity zymography of aortas, MMP2, WT mice
Protocol: as §8, §9

endothelial DHFR = experiment: Western blot of endothelial DHFR expression in aortic preparations, hph-1 mice; conditions: Ang II infusion 14 days
Protocol: as §1
On harvest, whole aorta was cut open longitudinally and then digested with collagenase (0.6 mg/mL) at 37° C. for 20 minutes before gentle removal of endothelial cells with a cotton applicator. The supernatant containing endothelial cells was centrifuged and lysed for Western blot analysis.

MMP2 [12] = experiment: MMP activity zymography of aortas, MMP2, hph-1 mice
Protocol: as §8, §9

eNOS [13] = experiment: ESR aortic superoxide production with or without L-NAME (eNOS uncoupling), hph-1 mice; conditions: Ang II-infused hph-1 mice
Protocol: as §1
(§10) The mice were monitored twice per day during the infusion period of 2 weeks, and aortas were harvested for assessment of AAA formation, endothelial DHFR expression, and eNOS uncoupling activity by day 14. Animals that died suddenly during the infusion period of 14 days were inspected for aneurysm immediately and aortas were freshly harvested for experiments.

WT mice [14] = experiment: Ultrasound detection of abdominal aorta size, WT mice; conditions: Ang II infusion, day 0 value 0.53
Excerpt: as §5

eNOS [15] = experiment: ESR aortic superoxide production with or without L-NAME (eNOS uncoupling), WT mice; conditions: Ang II-infused WT mice
Protocol: as §1, §10

WT mice [16] = experiment: AAA formation in Ang II-infused wild-type mice; conditions: Ang II 0.7 mg/kg per day, 14 days
Protocol: as §6, §7

eNOS [17] = experiment: ESR aortic superoxide production with or without L-NAME (eNOS uncoupling), apoE null mice
Protocol: L-NAME sensitive superoxide production, which reflects eNOS uncoupling activity, was also measured.
The functional state of eNOS is assessed in lysed aortic samples by measuring superoxide production in the presence or absence of L-NAME using electron spin resonance (ESR, from Bruker). Under normal conditions where eNOS is coupled, the addition of the eNOS inhibitor L-NAME will increase superoxide production, as eNOS is normally producing NO to scavenge superoxide. However, under eNOS uncoupled conditions where eNOS is producing superoxide, the addition of L-NAME will decrease superoxide production. This direction of change in superoxide production will allow for an accurate assessment of eNOS function in the aortas of the animals.

[18] = Ang II-infused hph-1 mice, FA 15 mg/kg per day

Nc1nc2ncc(CNc3ccc(C(=O)N[C@@H](CCC(=O)O)C(=O)O)cc3)nc2c(=O)[nH]1 [FA, folic acid]
aortic H4B levels (aortic H4B [1]): even higher than baseline | aortic H4B levels (aortic H4B [2]; [18]): even higher than baseline | aortic levels of H4B (aortic H4B [2]): 3.00 ± 0.64 pmol/mg | plasma levels of H4B (plasma H4B [3]): 2.36 ± 0.25 pmol/mg | aortic H4B levels (aortic H4B [4]): 6.60 ± 0.62 pmol/mg | abdominal aorta cross-sectional area at day 14 (hph-1 mice [5]): 0.52 mm^2 | AAA formation (hph-1 mice [6]; Ang II-infused hph-1 mice, 14 days, oral FA 15 mg/kg per day or DHFR vector tail vein transfection every other day): completely prevented and none | AAA total morbidity / incidence rate (hph-1 mice [6]; hph-1 mice): 0% | medial degradation and adventitial inflammatory cell recruitment, H&E staining (hph-1 mice [7]; Ang II-infused hph-1 mice): abrogated | medial elastin flattening and rarefaction of elastin fibers, VVG staining (hph-1 mice [7]; Ang II-infused hph-1 mice): attenuated | infiltrating macrophages (hph-1 mice [7]): completely attenuated | AAA incidence (apoE null mice; Ang II 1000 ng/kg/min for 4 weeks, FA 15 mg/kg/day in food where given): 16.7% and 17% | number of mice with AAA (apoE null mice): 4 | number of mice with No AAA (apoE null mice): 20 | effect on MBP decline (hph-1 mice [8]; [18]): prevented the decline | plasma H4B (plasma H4B [9]): 5.80 ± 0.30 pmol/mg | Ang II-induced MMP9 activation (MMP9): attenuated | effect on Ang II-induced hypertension (WT mice [10]; Ang II-infused WT mice, FA 15 mg/kg per day): highly effective in attenuating | Ang II-induced MMP2 activation (MMP2 [11]): inhibited | endothelial DHFR expression (endothelial DHFR): restored | Ang II-induced MMP2 activation (MMP2 [12]): attenuated

angiotensin II (DRVYIHPF; Angiotensin-2; UniProt P11859 25-32, looked up) [Ang II, angiotensin II infused by osmotic pump to induce AAA and eNOS uncoupling in mice]
eNOS uncoupling / L-NAME-sensitive O2•− production (eNOS [13]): further uncoupled; also recorded: progressive uncoupling | aortic levels of H4B (aortic H4B [2]): 0.99 ± 0.11 pmol/mg | plasma levels of H4B (plasma H4B [3]): 0.92 ± 0.06 pmol/mg | aortic H4B levels (aortic H4B [4]): 2.72 ± 0.26 pmol/mg | abdominal aorta cross-sectional area at day 14 (hph-1 mice [5]): 1.96 mm^2 | AAA total morbidity / incidence rate (hph-1 mice [6]; hph-1 mice): 79% | no-AAA rate (hph-1 mice [6]; hph-1 mice, Ang II 0.7 mg/kg per day, 14 days): 21% | abdominal aorta cross-sectional area at day 14 (WT mice [14]): 0.66 mm^2 | eNOS uncoupling / L-NAME-sensitive O2•− production (eNOS [15]): remained steady | infiltrating macrophages (hph-1 mice [7]): dramatically upregulated | number of mice with AAA (apoE null mice): 24 | number of mice with No AAA (apoE null mice): 2 | mean blood pressure (MBP) (hph-1 mice [8]; hph-1 mice, day 6 of Ang II infusion (baseline 112±3)): 140±2 mm Hg | plasma H4B (plasma H4B [9]): 1.87 ± 0.11 pmol/mg | died or developed AAA (WT mice [16]): none | mean blood pressure (MBP) (WT mice [10]; WT mice, day 6 of Ang II infusion (baseline 101±3)): 140±2 mm Hg | endothelial DHFR expression (endothelial DHFR): further reduced | L-NAME sensitive superoxide production (eNOS uncoupling activity), fold (eNOS [17]; Ang II 4 weeks (baseline 1.17±0.06)): 2.22±0.2 fold | L-NAME-sensitive superoxide production (eNOS [17]; Ang II 4 weeks, FA 15 mg/kg/day where given): markedly increased | aortic superoxide production, fold increase (eNOS [17]; Ang II 4 weeks, n=6 each): 2.67±0.15 fold
